Results as given in the supplement of paper PMC10307832.

What was measured:
Assay in all cases: relative viability (nuclei count vs DMSO), 5 days (fraction); higher = more cells survive
[1] = compound: CC1=C(C(=NN1)C)CC2=C(C3=C(S2)N(C(=O)N(C3=O)C)CC(C)C)C(=O)N4C[C@@H](CO4)O + Cc1nc(Nc2ncc(C(=O)Nc3c(C)cccc3Cl)s2)cc(N2CCN(CCO)CC2)n1 [Dasatinib] (partner 0.075 µM)
In short: (§1)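 Cells from lung cancer lines were seeded into 1536-well plates and, one day later, dosed by pin tool. Treatments were either a single drug or a fixed dose of an anchor drug with five library-drug doses (not always all listed) in √10 steps. After 5 days, nuclei were stained in a one-step fixation (final 0.05% Triton X-100, 1% formaldehyde, 1 ug/ml Hoechst) and counted on 4× images, and relative viability is the treated-to-vehicle nuclei ratio, as the median of duplicate plates.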

IDH-C35 + Crizotinib = compound: Cc1ccccc1C(C(=O)NC1CCCCC1)N(C(=O)Cn1ccnc1C)c1cccc(F)c1 [IDH-C35] + C[C@@H](Oc1cc(-c2cnn(C3CCNCC3)c2)cnc1N)c1c(Cl)ccc(F)c1Cl [Crizotinib] (partner 1 µM)
In short: as §1

IDH-C35 + Foretinib = compound: Cc1ccccc1C(C(=O)NC1CCCCC1)N(C(=O)Cn1ccnc1C)c1cccc(F)c1 [IDH-C35] + COc1cc2c(Oc3ccc(NC(=O)C4(C(=O)Nc5ccc(F)cc5)CC4)cc3F)ccnc2cc1OCCCN1CCOCC1 [Foretinib] (partner 0.25 µM)
In short: as §1

[2] = compound: CC1=C(C(=NN1)C)CC2=C(C3=C(S2)N(C(=O)N(C3=O)C)CC(C)C)C(=O)N4C[C@@H](CO4)O + Cc1nc(NC(=O)N2CCC[C@H]2C(N)=O)sc1-c1ccnc(C(C)(C)C(F)(F)F)c1 [Alpelisib] (partner 2 µM)
In short: as §1

Cell Line | relative viability ([1]; first compound 0.0025 µM) | relative viability ([1]; first compound 0.007906 µM) | relative viability ([1]; first compound 0.025 µM) | relative viability ([1]; first compound 0.07906 µM) | relative viability ([1]; first compound 0.25 µM) | relative viability (IDH-C35 + Crizotinib; first compound 0.08 µM) | relative viability (IDH-C35 + Crizotinib; first compound 0.253 µM) | relative viability (IDH-C35 + Crizotinib; first compound 0.8 µM) | relative viability (IDH-C35 + Crizotinib; first compound 2.53 µM) | relative viability (IDH-C35 + Crizotinib; first compound 8 µM) | relative viability (IDH-C35 + Foretinib; first compound 0.08 µM) | relative viability (IDH-C35 + Foretinib; first compound 0.253 µM) | relative viability (IDH-C35 + Foretinib; first compound 0.8 µM) | relative viability (IDH-C35 + Foretinib; first compound 2.53 µM) | relative viability (IDH-C35 + Foretinib; first compound 8 µM) | relative viability ([2]; first compound 0.0025 µM) | relative viability ([2]; first compound 0.007906 µM) | relative viability ([2]; first compound 0.025 µM) | relative viability ([2]; first compound 0.07906 µM) | relative viability ([2]; first compound 0.25 µM)
NCI-H2085 | 0.254 | 0.264 | 0.26 | 0.209 | 0.242 | 0.808 | 0.749 | 0.877 | 0.954 | 0.781 | 0.895 | 0.907 | 0.902 | 1 | 0.897 | 0.989 | 0.975 | 0.831 | 0.855 | 0.873
NCI-H2087 | 0.715 | 0.924 | 0.844 | 0.769 | 0.905 | 0.91 | 0.898 | 0.843 | 0.902 | 0.841 | 0.953 | 0.924 | 1.15 |  | 1.17 | 0.952 | 1.03 | 1.12 | 1.31 | 1.18
NCI-H2126 | 0.695 | 0.591 | 0.659 | 0.53 | 0.585 | 0.996 | 1.02 | 1 | 0.981 | 0.992 | 1.14 | 1.22 | 1.15 | 1.14 | 1.06 | 0.773 | 0.847 | 0.732 | 0.736 | 0.682
NCI-H2170 | 0.56 | 0.592 | 0.589 | 0.412 | 0.552 | 1.25 | 1.2 | 1.14 | 1.17 | 1.22 | 0.98 | 0.97 | 1.1 | 0.937 | 0.951 | 0.918 | 0.868 | 0.705 | 0.819 | 0.786
NCI-H2228 | 0.507 | 0.644 | 0.453 | 0.521 | 0.602 | 0.418 | 0.457 | 0.51 | 0.496 | 0.506 | 0.939 | 0.814 | 0.973 | 0.853 | 0.667 | 0.911 | 0.673 | 1.01 | 0.722 | 0.9
NCI-H2347 | 0.394 | 0.323 | 0.299 | 0.234 | 0.257 | 0.71 | 0.695 | 0.713 | 0.762 | 0.619 | 1.19 | 0.992 | 0.799 | 0.955 | 1.01 | 1.16 | 1.01 | 1.11 | 0.964 | 0.964
NCI-H2405 | 0.216 | 0.223 |  | 0.238 | 0.224 | 0.837 | 0.841 | 0.852 | 0.829 | 0.797 | 1.04 | 1.04 | 1.06 | 1.14 | 1.05 | 0.735 | 0.688 |  | 0.78 | 0.669
NCI-H3122 | 0.988 | 1.03 | 0.663 | 0.775 | 0.889 | 0.292 | 0.299 | 0.295 | 0.252 | 0.27 | 0.919 | 0.984 | 0.915 | 0.928 | 0.958 | 0.813 | 0.816 | 0.788 | 0.783 | 0.706
PC-3 [JPC-3] | 1.06 | 0.939 | 0.94 | 0.908 | 0.975 | 1.01 | 0.919 | 0.929 | 1.03 | 0.965 | 1 | 1.01 | 1.05 | 1.11 | 0.982 | 1.02 | 1.03 | 1 | 1.01 | 1.06
PC-14 | 0.281 | 0.261 | 0.254 | 0.278 | 0.269 | 0.886 | 0.845 | 0.837 | 0.88 | 0.835 | 1.03 | 0.909 | 0.978 | 0.988 | 0.889 | 1.05 | 0.877 | 0.886 | 0.974 | 0.975
RERF-LC-KJ | 0.874 | 0.946 | 0.751 | 0.855 | 0.804 | 0.887 | 0.822 | 0.794 | 0.904 | 0.763 | 0.941 | 0.853 | 0.968 | 0.867 | 0.888 | 0.977 | 0.939 | 0.92 | 0.775 | 0.964
SK-LU-1 | 0.194 | 0.195 | 0.192 | 0.169 | 0.182 | 0.881 | 0.797 | 0.948 | 0.904 | 0.881 | 0.833 | 0.839 | 0.87 | 0.878 | 0.901 | 0.879 | 0.565 | 0.537 | 0.782 | 0.582
SK-MES-1 | 0.389 | 0.367 | 0.371 | 0.337 | 0.314 | 1.05 | 0.953 | 0.912 | 0.937 | 0.986 | 0.983 | 0.955 | 0.897 | 0.971 | 0.756 | 0.964 | 0.997 | 1.04 | 0.878 | 1.01
SW 1573 | 0.451 | 0.681 | 0.402 | 0.501 | 0.597 | 0.759 | 0.889 | 0.798 | 1.01 | 0.713 | 1.18 | 0.873 | 0.915 | 0.933 | 0.928 | 0.756 | 0.699 | 0.764 | 0.715 | 0.917
